Measured values reported in ChEMBL document CHEMBL5523762, “Discovery of Potent and Selective G9a Degraders for the Treatment of Pancreatic Cancer” (J Med Chem, 2024).
Active and inactive are the calls of the source. No cut-off for these calls is given here.

Tests used:
KP-4 = assay: Antiproliferative activity against human KP-4 cells assessed as inhibition of cell growth measured after 72 hrs by SRB assay; assay type: functional, cell-based
HPAF-II = assay: Antiproliferative activity against human HPAF-II cells assessed as inhibition of cell growth measured after 72 hrs by SRB assay; assay type: functional, cell-based
SW1990 = assay: Antiproliferative activity against human SW1990 cells assessed as inhibition of cell growth measured after 72 hrs by SRB assay; assay type: functional, cell-based
Panc 04.03 = assay: Antiproliferative activity against human Panc 04.03 cells assessed as inhibition of cell growth measured after 72 hrs by SRB assay; assay type: functional, cell-based
PANC-1 [1] = assay: Induction of apoptosis in human PANC-1 cells at 10 uM by Annexin V-FITC/PI staining based flow cytometry analysis; assay type: functional, cell-based; details: time 12-72 hrs, TDE = time-dependent effect
PANC-1 [2] = assay: Upregulation of gammaH2AX expression in human PANC-1 cells at 0.1 to 10 uM measured after 24 hrs by Western blot analysis; assay type: functional, cell-based; details: dose 0.1-10 µM
PANC-1 [3] = assay: Upregulation of cleaved PARP level in human PANC-1 cells at 0.1 to 10 uM measured after 24 hrs by Western blot analysis; assay type: functional, cell-based; details: dose 0.1-10 µM
PANC-08-13 = assay: Synergistic antiproliferative activity against human PANC-08-13 cells assessed as combination index upto 20 uM incubated for 72 hrs in presence of MRTX1133; assay type: functional
Panc1005 = assay: Synergistic antiproliferative activity against human Panc1005 cells assessed as combination index for ED90 upto 20 uM incubated for 72 hrs in presence of MRTX1133; assay type: functional
ASPC1 [4] = assay: Downregulation of H3K9me2 level in human ASPC1 cells at 10 uM incubated for 24 hrs in presence of 1 uM MRTX1133 by Western blot analysis; assay type: functional, cell-based
ASPC1 [5] = assay: Sensitization of human ASPC1 cells to MRTX1133 assessed as upregulation of gammaH2AX level at 10 uM incubated for 24 hrs in presence of 1 uM MRTX1133 by Western blot analysis; assay type: functional, cell-based
[6] = Cmax in male ICR mouse at 20 mg/kg, ip measured upto 24 hrs by LC-MS/MS analysis; assay type: ADME, organism-based; details: in vivo
[7] = AUC (0 to t) in male ICR mouse at 5 mg/kg, iv measured upto 24 hrs by LC-MS/MS analysis; assay type: ADME, organism-based; details: in vivo
[8] = Clearance in male ICR mouse at 5 mg/kg, iv measured upto 24 hrs by LC-MS/MS analysis; assay type: ADME, organism-based; details: in vivo
[9] = biological target: T1, Histone-lysine N-methyltransferase EHMT2 (Homo sapiens) (UniProt Q96KQ7); assay: Inhibition of N-terminal GST tagged human recombinant G9a (785 to 1210 residues) expressed in Escherichia coli using H3(1 to 21)K9me1 and SAM as substrates incubated for 1 hr by HTRF assay
T1 sequence (whole entry): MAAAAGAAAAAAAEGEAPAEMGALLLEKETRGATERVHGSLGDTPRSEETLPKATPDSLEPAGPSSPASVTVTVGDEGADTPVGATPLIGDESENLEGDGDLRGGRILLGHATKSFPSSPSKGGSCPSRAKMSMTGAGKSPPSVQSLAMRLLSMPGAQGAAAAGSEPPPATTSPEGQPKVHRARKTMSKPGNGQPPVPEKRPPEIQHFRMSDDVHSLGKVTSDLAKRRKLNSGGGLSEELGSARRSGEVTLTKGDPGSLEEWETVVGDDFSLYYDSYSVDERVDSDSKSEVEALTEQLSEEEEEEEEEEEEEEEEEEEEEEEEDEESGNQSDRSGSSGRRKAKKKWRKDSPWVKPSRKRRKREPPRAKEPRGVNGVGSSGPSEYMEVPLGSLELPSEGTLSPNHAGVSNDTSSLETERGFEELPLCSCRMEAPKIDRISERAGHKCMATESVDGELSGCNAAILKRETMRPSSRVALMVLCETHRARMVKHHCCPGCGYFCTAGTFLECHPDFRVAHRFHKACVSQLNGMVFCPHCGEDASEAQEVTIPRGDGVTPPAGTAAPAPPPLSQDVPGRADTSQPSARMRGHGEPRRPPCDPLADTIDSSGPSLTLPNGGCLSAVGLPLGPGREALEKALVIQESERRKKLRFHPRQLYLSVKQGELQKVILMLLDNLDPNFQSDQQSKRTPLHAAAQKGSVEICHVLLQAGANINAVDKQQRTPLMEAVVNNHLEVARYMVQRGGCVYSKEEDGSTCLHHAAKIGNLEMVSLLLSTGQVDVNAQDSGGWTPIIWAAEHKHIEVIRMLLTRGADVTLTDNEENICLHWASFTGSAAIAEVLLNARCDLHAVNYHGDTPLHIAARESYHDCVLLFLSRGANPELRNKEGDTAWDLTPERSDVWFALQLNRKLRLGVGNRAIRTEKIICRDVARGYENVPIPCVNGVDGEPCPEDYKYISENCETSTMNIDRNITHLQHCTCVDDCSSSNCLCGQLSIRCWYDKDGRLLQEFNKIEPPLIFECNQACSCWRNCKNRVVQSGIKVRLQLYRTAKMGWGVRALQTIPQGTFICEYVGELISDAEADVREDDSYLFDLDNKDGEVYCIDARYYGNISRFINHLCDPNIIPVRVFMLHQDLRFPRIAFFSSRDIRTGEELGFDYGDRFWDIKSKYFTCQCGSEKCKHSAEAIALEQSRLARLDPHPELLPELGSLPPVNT

[10] = biological target: T2, Protein cereblon/Histone-lysine N-methyltransferase EHMT2 (Homo sapiens, UniProt Q96KQ7+Q96SW2); assay: PROTAC activity at CRBN/G9a in human PANC-1 cells assessed as induction of G9a degradation measured after 8 hrs by Western blot analysis; assay type: cell-based
[11] = biological target: T3, Protein cereblon/Histone-lysine N-methyltransferase EHMT1 (Homo sapiens) (UniProt Q9H9B1+Q96SW2); assay: PROTAC activity at CRBN/GLP in human ASPC1 cells assessed as induction of GLP degradation at 0.008 to 20 uM measured after 8 hrs by Western blot analysis; assay type: cell-based; details: dose 0.008-20 µM
T3 sequence (Q96SW2 whole entry, looked up): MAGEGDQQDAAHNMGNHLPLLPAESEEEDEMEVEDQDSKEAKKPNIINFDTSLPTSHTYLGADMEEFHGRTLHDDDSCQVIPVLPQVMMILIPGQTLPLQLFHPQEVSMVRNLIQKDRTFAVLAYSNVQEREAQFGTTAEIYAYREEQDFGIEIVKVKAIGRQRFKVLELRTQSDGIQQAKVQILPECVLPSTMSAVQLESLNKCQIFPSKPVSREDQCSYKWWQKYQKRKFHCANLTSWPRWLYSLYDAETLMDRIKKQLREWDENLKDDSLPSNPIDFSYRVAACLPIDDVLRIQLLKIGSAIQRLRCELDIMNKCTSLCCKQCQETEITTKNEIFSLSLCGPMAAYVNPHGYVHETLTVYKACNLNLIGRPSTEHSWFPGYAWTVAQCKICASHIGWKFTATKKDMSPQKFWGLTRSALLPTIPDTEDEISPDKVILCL
T3 sequence (Q9H9B1 whole entry, looked up): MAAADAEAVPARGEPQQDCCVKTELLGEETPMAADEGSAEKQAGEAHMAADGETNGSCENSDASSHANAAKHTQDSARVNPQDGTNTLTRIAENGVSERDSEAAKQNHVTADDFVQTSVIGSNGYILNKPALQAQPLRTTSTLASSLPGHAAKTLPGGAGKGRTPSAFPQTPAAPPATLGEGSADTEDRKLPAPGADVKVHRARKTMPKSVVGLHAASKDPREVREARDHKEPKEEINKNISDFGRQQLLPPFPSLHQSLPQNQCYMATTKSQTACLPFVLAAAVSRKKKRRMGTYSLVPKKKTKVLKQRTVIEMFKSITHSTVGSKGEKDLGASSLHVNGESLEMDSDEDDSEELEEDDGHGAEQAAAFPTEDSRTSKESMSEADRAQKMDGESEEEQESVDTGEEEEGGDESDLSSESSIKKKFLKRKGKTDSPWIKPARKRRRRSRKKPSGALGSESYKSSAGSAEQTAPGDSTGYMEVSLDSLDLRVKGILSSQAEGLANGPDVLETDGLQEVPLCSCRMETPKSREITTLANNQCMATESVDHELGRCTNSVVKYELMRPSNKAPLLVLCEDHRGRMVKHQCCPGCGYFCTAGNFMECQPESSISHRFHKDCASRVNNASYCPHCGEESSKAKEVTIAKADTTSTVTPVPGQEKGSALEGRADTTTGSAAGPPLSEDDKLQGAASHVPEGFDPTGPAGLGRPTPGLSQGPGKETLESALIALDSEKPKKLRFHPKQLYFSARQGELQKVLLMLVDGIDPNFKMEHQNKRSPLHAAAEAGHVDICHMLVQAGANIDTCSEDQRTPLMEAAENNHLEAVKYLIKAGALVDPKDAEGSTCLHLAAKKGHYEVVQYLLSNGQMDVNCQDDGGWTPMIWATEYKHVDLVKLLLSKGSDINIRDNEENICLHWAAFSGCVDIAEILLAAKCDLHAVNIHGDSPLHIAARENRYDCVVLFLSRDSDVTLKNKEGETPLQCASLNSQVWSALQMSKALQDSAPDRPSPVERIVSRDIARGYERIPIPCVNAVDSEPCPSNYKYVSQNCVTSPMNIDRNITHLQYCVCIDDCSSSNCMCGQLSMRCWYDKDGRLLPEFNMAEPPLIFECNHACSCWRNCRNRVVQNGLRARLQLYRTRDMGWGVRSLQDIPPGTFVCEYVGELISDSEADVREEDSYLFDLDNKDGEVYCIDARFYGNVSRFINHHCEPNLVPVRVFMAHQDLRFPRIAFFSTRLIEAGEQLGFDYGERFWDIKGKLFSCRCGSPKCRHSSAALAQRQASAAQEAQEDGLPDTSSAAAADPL

[12] = biological target: T2, Protein cereblon/Histone-lysine N-methyltransferase EHMT2; assay: PROTAC activity at CRBN/G9a in human PANC-1 cells assessed as induction of G9a degradation at 1 uM measured after 8 to 24 hrs by Western blot analysis; assay type: cell-based; details: time 8-24 hrs
Target sequence in this assay (Q96SW2 whole entry partner, one chain of several): as the sequence (Q96SW2 whole entry, looked up) above

[13] = biological target: T3, Protein cereblon/Histone-lysine N-methyltransferase EHMT1 (Homo sapiens); assay: PROTAC activity at CRBN/GLP in human PANC-1 cells assessed as induction of GLP degradation at 1 uM measured after 8 to 24 hrs by Western blot analysis; assay type: cell-based; details: time 8-24 hrs
[14] = biological target: T3, Protein cereblon/Histone-lysine N-methyltransferase EHMT1 (Homo sapiens); assay: PROTAC activity at CRBN/GLP in human PANC-1 cells assessed as downregulation of GLP protein level at 1 uM measured after 8 hrs by quantitative proteomics analysis; assay type: cell-based
PANC-1 [15] = assay: Effect on H3K36me3 level in human PANC-1 cells at 0.04 to 10 uM measured after 24 hrs by Western blot analysis; assay type: functional, cell-based; details: dose 0.04-10 µM
[16] = biological target: T2, Protein cereblon/Histone-lysine N-methyltransferase EHMT2; assay: PROTAC activity at CRBN/G9a in human PANC-1 cells assessed as induction of G9a degradation at 1 uM pretreated with MLN4924 for 2 hrs followed by compound addition and measured after 8 hrs by Western blot analysis; assay type: cell-based
Target sequence in this assay (Q96SW2 whole entry partner, one chain of several): as the sequence (Q96SW2 whole entry, looked up) above

Cmax [6]: 2670 ng/mL | AUC(0-t) at 24 h [7]: 3780 ng·h/mL | clearance [8]: 22.4 mL/min/kg | inhibition [9]: Active | Activity [10]: Dose-Dependent Effect | DC50 [10]: 100 nM | Activity [11]: inactive | Activity [12]: Active | Activity [13]: inactive | Activity [14]: inactive | Activity [16]: inactive
Compound: COc1cc2c(NC3CCN(CCCC(=O)NCCCCCCCCNc4cccc5c4C(=O)N(C4CCC(=O)NC4=O)C5=O)CC3)nc(C3CCCCC3)nc2cc1OCCCN1CCCC1 (stereo not drawn)
Activity (KP-4): Active | Activity (HPAF-II): Active | Activity (SW1990): Active | Activity (Panc 04.03): Active | Activity (PANC-1 [1]): Tde | Activity (PANC-1 [2]): Active | Activity (PANC-1 [3]): Active | CI (PANC-08-13): <0.8 | CI (Panc1005): <0.4 | Activity (ASPC1 [4]): Active | Activity (ASPC1 [5]): Active | Activity (PANC-1 [15]): inactive
